Test results taken from article PMC9145193 (Molecules, 2022).
“And” between values parts separate entries of the source, which are not always exact repeats. Identical values can stand only once. Like-named read-outs stand apart in the source and are kept apart here.

Experiments:
Aβ = target: T1, Aβ (Homo sapiens, UniProt P05067); test: Self-induced Aβ aggregation inhibition by thioflavin T assay; assay type: biochemical; conditions: read-out: Aβ Aggregation Inhibition (%)
T1 construct: Aggregation of β-amyloid peptide (Aβ) is one of the main histopathological hallmarks of AD; purchased Beyotime P9001
Experimental: Aggregation of β-amyloid peptide (Aβ) is one of the main histopathological hallmarks of AD [34].
A total of 1mg Aβ (P9001, Beyotime, Shanghai, China) was dissolved in 1 mL of hexafluoroisopropanol and aliquoted into 50 μL per tube. Then, 20 μL of DMSO was added into one tube of Aβ solution. The test compound was prepared as a 10 mM of stock solution with DMSO and diluted to 50 μM with PBS (including the control). Then, 20 μL of the test compound and 20 μL of the Aβ solution were added to a 96-well black plate, which was gently tapped to mix the solution, covered tightly and sealed with black tape to prevent evaporation of the solvent, and left in the dark at room temperature for 24 h. Then. 160 μL of THT solution at a concentration of 5 μM was added and the fluorescence absorption was measured at an excitation wavelength of 445 nm and an emission wavelength of 490 nm. The software GraphPad Prism 8.0 was used to analyze the data.

[1] = target: T2, AChE enzyme from electrophorus electricus (eeAChE) (Electrophorus electricus, UniProt O42275); test: biochemical; conditions: mean ± SEM from three independent experiments
T2 construct: purchased Merck C3389
Experimental: Donepezil was used as a positive control.
AChE activity was measured by the […] using AChE enzyme from electrophorus electricus (eeAChE) (C3389, Merck, Kenilworth, NJ, USA). AChE solution (2 U/mL) was prepared with 0.1 M phosphate buffer (pH 8.0) firstly. Varied concentrations of test compounds (20 μL), 1 mM 5′-dithiobis (2-nitrobenzoic acid) (DTNB) solution (100 μL), and AChE solution (40 μL) were added in order to each well of a 96-well plate. After incubation for 15 min at 37 °C, the reaction was initiated by adding 20 μL of acetylthiocholine iodide (1 mM) to the mixed solution. The absorbance of each plate was instantly measured at 405 nm using a microplate reader. The inhibition of each compound was estimated using the formula (1−Ai/Ac) × 100, where Ai and Ac represent the absorbance of AChE in the presence and absence of inhibitors, respectively. Each experiment was replicated three times. Plotting curves of log concentration via percentage of inhibition, the IC50 values of all tested compounds were graphically analyzed (Graph Pad Prism 8.0).

SH-SY5Y cells = test: Cytotoxicity assay on SH-SY5Y cells (MTT); assay type: cell-based; conditions: 10, 25 and 50 μM, 24 h
Experimental: To evaluate the cytotoxicity of these new compounds, cell viability was tested on SH-SY5Y cells.
SH-SY5Y cells were grown in a 25 cm^2 culture flask in fresh MEM/F12 medium, supplemented with 10% fetal bovine serum, 100 U/mL penicillin, and 100 µg/mL streptomycin, and incubated at 37 °C with 5% CO2. Cells were seeded at a density of 1 × 10^4 cells per well in a 96-well plate. After incubation for 24 h, medium was removed. […] After 24 h treatment, 10 μL of 3-(4,5-dimethyl-2-thiazolyl)-2,5-diphenyl-2-H-tetrazolium bromide was added into each well. After 4 h of incubation at 37 °C, 100 μL of DMSO was added to dissolve the formazan crystals, and the mixture’s absorbance was measured at 490 nm under a microplate reader (FC/K3, Thermo, Waltham, MA, USA). The survival rate was estimated using the formula Ae/Ab × 100%, where Ae and Ab represent the absorbance of SH-SY5Y cells in the presence and absence of the tested drugs, respectively. Each experiment was replicated three times.

[2] = DPPH free radical scavenging assay; conditions: 50 μM, mean ± SEM
Experimental: DPPH assay was used to evaluate the free radical scavenging ability of the representative compound 10a, while Trolox was used as a control.
Compound 10a was tested for free radical-scavenging activity using 1,1-diphenyl-2-picryl-hydrazyl (DPPH) (D9132, Merck, Kenilworth, NJ, USA). To make a 0.1 mM concentration of DPPH stock solution, DPPH was dissolved in methanol. […] Trolox was used as a reference. The absorbance was measured at 545 nm after 30 min of reaction at 25 °C.

AChE = target: T3, AChE (Electrophorus electricus, UniProt O42275); test: Kinetic study of AChE inhibition (Lineweaver-Burk); assay type: biochemical; conditions: 10a at 0, 0.8 and 1.6 nM
T3 construct: purchased Merck C3389
Experimental: The mechanistic inhibition study of compound 10a on the AChE was carried out through kinetic parameters such as maximal velocity (Vmax), inhibitory concentration (Ki) and Michalis–Menten dissociation constant (Km).
Kinetic study of AChE inhibition was carried out using Ellman’s method, which is the same as the AChE assay, to determine the kinetic mechanism of chemical inhibition. The kinetic inhibition of compound 10a was analyzed at concentrations of 0.8 and 1.6nM. Lineweaver–Burk reciprocal plots were created by graphing 1/velocity vs. 1/[substrate] at various concentrations of substrate acetylthiocholine. The software GraphPad Prism 8.0 was used to analyze the data.

T2 sequence (O42275 24-633): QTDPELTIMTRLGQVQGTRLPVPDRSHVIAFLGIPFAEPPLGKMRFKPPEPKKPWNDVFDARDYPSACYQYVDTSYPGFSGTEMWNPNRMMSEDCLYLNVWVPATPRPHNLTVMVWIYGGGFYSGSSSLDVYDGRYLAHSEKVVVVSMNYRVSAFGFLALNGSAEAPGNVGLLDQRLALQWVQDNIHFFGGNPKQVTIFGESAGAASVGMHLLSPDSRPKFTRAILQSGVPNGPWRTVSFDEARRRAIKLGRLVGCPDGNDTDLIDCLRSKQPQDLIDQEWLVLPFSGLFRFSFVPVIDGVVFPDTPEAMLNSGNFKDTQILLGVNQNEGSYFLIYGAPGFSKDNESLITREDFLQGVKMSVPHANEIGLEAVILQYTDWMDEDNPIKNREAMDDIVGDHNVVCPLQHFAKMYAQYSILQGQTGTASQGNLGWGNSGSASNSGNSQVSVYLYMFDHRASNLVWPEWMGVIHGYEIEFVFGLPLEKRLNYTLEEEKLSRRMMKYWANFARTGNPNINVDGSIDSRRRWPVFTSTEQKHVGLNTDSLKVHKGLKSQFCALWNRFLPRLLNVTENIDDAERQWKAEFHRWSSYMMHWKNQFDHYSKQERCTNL
T1 sequence (P05067 672-713): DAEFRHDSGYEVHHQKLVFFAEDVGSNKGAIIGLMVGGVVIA
T3 sequence (O42275 24-633): as the sequence (O42275 24-633) above

SMILES | IC50 [1] | Cell viability on SH-SY5Y cells (SH-SY5Y cells) | Reduced DPPH (%) [2] | other results
Oc1ccc(/C=C/c2cc(O)cc(O)c2)cc1 [Resveratrol, reference compound] |  |  |  | inhibition at 25 µM (Aβ; 25 μM, self-induced, thioflavin T, mean ± SEM): 83.3 ± 5.23%
COc1cc2c(cc1OC)C(=O)/C(=C/c1cc[n+](Cc3ccccc3F)cc1C(N)=O)OC2.[Br-] [13b, (Z)-3-Carbamoyl-4-((6,7-dimethoxy-4-oxoisochroman-3-ylidene)methyl)-1-(2-fluorobenzyl)pyridin-1-ium Bromide] | 3.54 ± 0.05 nM | did not significantly alter cell viability |  | 
Cc1c(C)c2c(c(C)c1O)CCC(C)(C(=O)O)O2 (stereo not shown) [Trolox, reference compound] |  |  | 72.41 ± 4.23% | 
COc1cc2c(cc1OC)C(=O)/C(=C/c1cc[n+](Cc3ccccc3)cc1C(C)=O)OC2.[Br-] [10a, (Z)-3-Acetyl-1-benzyl-4-((6,7-dimethoxy-4-oxoisochroman-3-ylidene)methyl)pyridin-1-ium bromide] | 1.61 ± 0.02 nM | did not significantly alter cell viability | 31.89% and 31.89 ± 3.23% | inhibition at 25 µM (Aβ): 57 ± 2.68%; Type of AChE inhibition (Lineweaver-Burk plot) (AChE): mixed-type inhibitor
COc1cc2c(cc1OC)C(=O)/C(=C/c1cc[n+](Cc3ccc(Br)cc3)cc1C(C)=O)OC2 [10j, (Z)-3-Acetyl-1-(4-bromobenzyl)-4-((6,7-dimethoxy-4-oxoisochroman-3-ylidene)methyl)pyridin-1-ium Bromide] | 75.7 ± 3.18 nM |  |  | 
